The test system of this assay is mAb 2C5 (anti-PS-I IgG1). In words: Kinetic SPR of glycans binding to captured mAb 2C5. The arrangement: species or system mouse. The conditions noted are these: for off-rate: mAb 2C5; for Kd: mAb 2C5, PBS, 25 °C. Here is the method:
Kinetic SPR experiments were performed to determine the binding strengths of the mAbs to PS-I glycans expressed as dissociation constants (KD)[8] (Fig. 5a). […] Overall, the SPR measurements (summarized in Table 1) confirmed results obtained by glycan microarray presented above.
Figure 5 KD values of anti-PS-I mAbs binding to 1 and 3 inferred by SPR. (a) mAbs were captured with an anti-mouse IgG antibody immobilized on the SPR sensor surface. Glycan antigens were passed over the surface to monitor changes in the response unit signals. (b,c) Representative sensorgrams showing reference-subtracted binding signals to 1 (b) and 3 (c). KD values were calculated by fitting the curves to a 1:1 Langmuir binding model (black overlaid curves) or with a steady-state affinity model (response units versus concentration plots). Indicated KD values are mean±s.e.m. of n=3 or mean with minimum and maximum values in parentheses of n=2 independent experiments. See Supplementary Figs 3–5 for details.
Binding analyses were carried out on a Biacore T100 instrument (GE Healthcare). CM5 sensor chips were functionalized with about 10,000 RUs of α-mouse IgG capture antibody, using the Mouse Antibody Capture Kit and the Amine Coupling Kit (GE Healthcare) according to the manufacturer's recommendations. A blank-immobilized flow cell was used as reference, to compensate for nonspecific binding of antibodies or oligosaccharides to the sensor chip surface. Kinetic measurements were performed with the Biacore T100 Control software using the ‘Kinetics' function. PBS was used as running buffer and all measurements were performed at 25 °C and a flow rate of 30 μl min^−1. About 500 RUs of mAbs were captured at a concentration of 50 μg ml^−1 diluted in PBS and oligosaccharides or OAAs (in PBS) at the indicated concentrations were passed through, using the standard parameters for association and dissociation times unless mentioned otherwise. Flow cells were regenerated with 10 mM glycine-HCl pH 1.7 for 30 s. Kinetic evaluation of binding responses was performed with the Biacore T100 Evaluation software, using reference-subtracted sensorgrams. Two different kinetic models, a 1:1 binding Langmuir model and a two-state reaction model, which assumes a conformational change in the antibody–analyte complex, were used to fit the data. The fitting quality was evaluated by investigating respective residual plots, χ^2 and s.e. values for on- and off-rates. Both models yielded similar good fittings. We chose the 1:1 binding model over the two-state reaction model to calculate on- and off-rates, as well as KD values, as this model makes fewer assumptions. When on-rates and/or off-rates were outside of the measurable ranges of the instrument, the steady-state affinity model was used instead to determine KD values. The 1:1 binding model was generally preferred over the steady-state affinity model in cases where both could be applied. In these cases, the two models yielded roughly similar KD values. Thermodynamic parameters were inferred by using the ‘Thermodynamics' function of the Biacore T100 Control software with the same experimental set-up described above. Temperatures from 13 to 37 °C were chosen. Values for ΔG, ΔH and ΔS were inferred by van't Hoff analysis. IM analysis was carried out by Ridgeview Diagnostics AB, Uppsala, Sweden.
Supplementary Figure 3 | KD values of mAb 2C5 to PS‐I oligosaccharide antigens inferred by SPR. […]

Where [1] appears, read: mean±s.e.m. n=3 or mean (min;max) n=2.

In general, Kd refers to the concentration at which binding is half-saturated. Lower therefore signals higher affinity. In turn, `C[C@@H]1O[C@@H](O[C@@H]2[C@@H](O)[C@H](O[C@H]3[C@H](O[C@@H]4O[C@@H](C)[C@H](O)[C@@H](O)[C@H]4O)[C@@H](O)[C@@H](O[C@H]4[C@@H](OCCCCCN)O[C@H](CO)[C@@H](O)[C@@H]4O)O[C@@H]3CO)O[C@H](CO)[C@H]2O)[C@H](O)[C@H](O)[C@H]1O` [Compound 1] displayed an off-rate of 0.0019 s⁻¹. Under setting [1], this compound registered a Kd of 0.163 ± 0.023 µM. In addition, the off-rate koff (mAb 2C5, dissociation model fit, mean±s.e.m. n=3 or mean (min;max) n=2) is on record as 1.6±0.1 × 10^-3 s^-1.
`C[C@@H]1O[C@@H](O[C@@H]2[C@@H](O)[C@H](OCCCCCN)O[C@H](CO)[C@H]2O)[C@H](O)[C@H](O)[C@H]1O` [Compound 3, Rha-(1→3)-Glc] gave an off-rate of 0.0016 s⁻¹. Under setting [1], this compound displayed a Kd of 18 µM.

These data come from article PMC4838876, “Multivalent display of minimal Clostridium difficile glycan epitopes mimics antigenic properties of larger glycans” (Nature Communications, 2016).
